Reference: the supplement of paper PMC11451515

System: P12-Ichikawa
Experiment: cell viability relative to DMSO control; higher = less cytotoxic
Conditions: 48 h
Summary of the method: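 NOMO1, SEM and P12-Ichikawa leukemia cells spent at least four passages adapting to each medium before use. They were seeded at 500 cells/well (NOMO1, SEM) or 1000 cells/well (P12-Ichikawa) in 5 μl in 1536-well plates and pin-dosed with library compounds in DMSO at 11 threefold steps from 47 μM down to 0.79 nM. After 48 h at 37°C, CellTiter-Glo One luminescence was read. Viability is reported as a percentage of the DMSO wells on each plate, with cell-free wells as background.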

[1] = HPLM + 10% dialyzed FBS, 0.000781 µM
[2] = HPLM + 10% dialyzed FBS, 0.00234 µM
[3] = HPLM + 10% dialyzed FBS, 0.00702 µM
[4] = HPLM + 10% dialyzed FBS, 0.0211 µM
[5] = HPLM + 10% dialyzed FBS, 0.0632 µM
[6] = HPLM + 10% dialyzed FBS, 0.19 µM
[7] = HPLM + 10% dialyzed FBS, 0.569 µM
[8] = HPLM + 10% dialyzed FBS, 1.71 µM
[9] = HPLM + 10% dialyzed FBS, 5.12 µM
[10] = HPLM + 10% dialyzed FBS, 15.4 µM
[11] = HPLM + 10% dialyzed FBS, 46.1 µM
[12] = RPMI 5 mM glucose + 10% FBS, 0.000781 µM
[13] = RPMI 5 mM glucose + 10% FBS, 0.00234 µM
[14] = RPMI 5 mM glucose + 10% FBS, 0.00702 µM
[15] = RPMI 5 mM glucose + 10% FBS, 0.0211 µM
[16] = RPMI 5 mM glucose + 10% FBS, 0.0632 µM
[17] = RPMI 5 mM glucose + 10% FBS, 0.19 µM
[18] = RPMI 5 mM glucose + 10% FBS, 0.569 µM
[19] = RPMI 5 mM glucose + 10% FBS, 1.71 µM
[20] = RPMI 5 mM glucose + 10% FBS, 5.12 µM
[21] = RPMI 5 mM glucose + 10% FBS, 15.4 µM
[22] = RPMI 5 mM glucose + 10% FBS, 46.1 µM
[23] = RPMI 5 mM glucose + 10% dialyzed FBS, 0.000781 µM
[24] = RPMI 5 mM glucose + 10% dialyzed FBS, 0.00234 µM
[25] = RPMI 5 mM glucose + 10% dialyzed FBS, 0.00702 µM
[26] = RPMI 5 mM glucose + 10% dialyzed FBS, 0.0211 µM
[27] = RPMI 5 mM glucose + 10% dialyzed FBS, 0.0632 µM
[28] = RPMI 5 mM glucose + 10% dialyzed FBS, 0.19 µM
[29] = RPMI 5 mM glucose + 10% dialyzed FBS, 0.569 µM
[30] = RPMI 5 mM glucose + 10% dialyzed FBS, 1.71 µM
[31] = RPMI 5 mM glucose + 10% dialyzed FBS, 5.12 µM
[32] = RPMI 5 mM glucose + 10% dialyzed FBS, 15.4 µM
[33] = RPMI 5 mM glucose + 10% dialyzed FBS, 46.1 µM

SMILES	cell viability [1] [%]	cell viability [2] [%]	cell viability [3] [%]	cell viability [4] [%]	cell viability [5] [%]	cell viability [6] [%]	cell viability [7] [%]	cell viability [8] [%]	cell viability [9] [%]	cell viability [10] [%]	cell viability [11] [%]	cell viability [12] [%]	cell viability [13] [%]	cell viability [14] [%]	cell viability [15] [%]	cell viability [16] [%]	cell viability [17] [%]	cell viability [18] [%]	cell viability [19] [%]	cell viability [20] [%]	cell viability [21] [%]	cell viability [22] [%]	cell viability [23] [%]	cell viability [24] [%]	cell viability [25] [%]	cell viability [26] [%]	cell viability [27] [%]	cell viability [28] [%]	cell viability [29] [%]	cell viability [30] [%]	cell viability [31] [%]	cell viability [32] [%]	cell viability [33] [%]
CC1(C)[C@@H](O[C@H]2O[C@H](C(=O)O)[C@@H](O)[C@H](O)[C@H]2O[C@@H]2O[C@H](C(=O)O)[C@@H](O)[C@H](O)[C@H]2O)CC[C@]2(C)[C@H]3C(=O)C=C4[C@@H]5C[C@@](C)(C(=O)O)CC[C@]5(C)CC[C@@]4(C)[C@]3(C)CC[C@@H]12	112	130	118	132	128	131	136	128	123	128	135																						
CCOC(=O)C/1=C(C)/NC(=S)NC1C2=CC=CC(=C2)O (configuration not stated)	110	115	115	118	125	59	9.07	6.6	5.26	6.98	5.13	106	110	128	128	112	42.6	11	8.73	7.18	8.04	9.16	102	102	113	113	120	93.4	21	14.2	7.5	9.98	11.8
CN(N=O)C(=O)N[C@H]1C(O)OC(CO)[C@@H](O)[C@@H]1O (some centres not stated)	91.5	84.9	82.8	84.2	89.2	81.9	85.8	82.8	84.2	60.5	83	83.3	84.2	76.3	75.8	81.3	85.2	74.2	87.6	72.8	78.5	83.7	70.2	81.9	83.9	74.1	79.6	76.6	80.2	81.7	71.3	71	77.5
FC(F)(F)c1ccc(Nc2nc3cc(Oc4ccnc(-c5ncc(C(F)(F)F)[nH]5)c4)ccc3[nH]2)cc1	118	111	115	120	122	115	117	123	118	112	71.3	119	119	127	123	130	122	127	137	130	111	67.8											
COc1ccc(/C=C\c2cc(OC)c(OC)c(OC)c2)cc1O	21	15	12.9	11.3	11.9	9.68	9.98	8.29	5.6	4.13	3.74	27.5	22	13.8	14.2	11.2	11.2	10.4	10.6	7.66	3.98	2.78	33.5	26.7	20.4	14.9	15.3	14.3	13.1	11	9.65	7.03	3.92
Cc1ccc(NC(=O)C2(c3ccc4c(c3)OC(F)(F)O4)CC2)nc1-c1cccc(C(=O)O)c1	101	111	101	108	93.4	58.4	29.4	19.5	17.2	10.9	6.66	106	98.6	95.5	101	85.3	42.2	18.7	16.1	11.1	9.88	6.85	102	103	97	96.1	95.4	44.5	30.4	20.8	9.02	8.13	6.13
CCC[C@@H]1C[C@@H](C(=O)N[C@@H]([C@H]2O[C@H](SC)[C@H](O)[C@@H](O)[C@H]2O)[C@@H](C)O)N(C)C1.Cl	119	113	122	111	122	125	111	98.8	97.8	106	100	119	114	106	112	119	123	89.9	83	96	102	101	122	117	128	140	145	108	66.4	70	112	95.9	94.4
C[N]1C=NC=C1[C@@](N)(C2=CC=C(Cl)C=C2)C3=CC=C4N(C)C(=O)\C=C(\C5=CC=CC(=C5)Cl)C4=C3	111	110	113	106	109	97.4	82.4	79.2	73	50.1	27.9	110	113	113	106	100	81.2	82.9	69	67.7	42.1	32.3	105	114	115	100	107	92.2	85.5	72.8	69.6	59.9	39.3
Cc1nc(Nc2ncc(C(=O)Nc3c(C)cccc3Cl)s2)cc(N2CCN(CCO)CC2)n1	108	104	110	104	111	107	107	69.6	14.2	15.5	15	106	109	102	108	113	109	107	102	56.8	21.3	23.4	104	104	113	103	107	106	109	99.3	45.5	33.7	35.3
O=C(Cc1cccc(OC(F)(F)F)c1)Nc1ccc(CCCCc2nnc(NC(=O)Cc3ccccn3)s2)nn1	120	118	126	112	115	107	101	99.4	103	91.7	95.8	121	113	121	115	103	95.6	83	83.2	71.2	77.8	76.5											
CN1CCCN(C(=O)c2cccc(-c3ccc(/C=C4/C(=O)Nc5ccc(Cl)cc54)o3)c2)CC1	106	119	114	116	114	120	106	92.3	76.9	76.9	59.2	117	108	111	117	115	110	102	85.8	54.7	20.1	3.03	103	107	117	114	113	108	111	90.7	64.3	53	5.68
O=C1NC(=O)[C@@H](c2cn3c4c(cccc24)CCC3)[C@@H]1c1c[nH]c2ccccc12	99	96.4	103	98.7	105	103	93.8	56	23.3	20.7	18.5	93.1	111	102	107	107	102	90.9	48.4	11.9	17.9	14.3	105	105	99.9	111	117	113	109	78	34.6	30	33.1
